Reference: patent EP4772509A1, “KINESIN KIF18A INHIBITOR, AND APPLICATION THEREOF” (Shanghai Apeiron Therapeutics Company Limited, priority 2023, dated 2025)
Where two headings read alike, the source gives them in different places.

Assays:
[1] = target: T1, Human KIF18A (amino acid sequence 1-417) (Homo sapiens, UniProt Q8NI77); assay: Enzymatic activity test (ADP-Glo, microtubule-stimulated ATPase); assay type: biochemical; conditions: 60 µg/mL microtubules, 25 µM ATP, 2.5 nM KIF18A protein, 120 min at ambient temperature, chemiluminescence; read-out: KIF18A IC50
T1 construct: purchased Viva Biotech (Shanghai) Ltd
T1 sequence (Q8NI77 1-417): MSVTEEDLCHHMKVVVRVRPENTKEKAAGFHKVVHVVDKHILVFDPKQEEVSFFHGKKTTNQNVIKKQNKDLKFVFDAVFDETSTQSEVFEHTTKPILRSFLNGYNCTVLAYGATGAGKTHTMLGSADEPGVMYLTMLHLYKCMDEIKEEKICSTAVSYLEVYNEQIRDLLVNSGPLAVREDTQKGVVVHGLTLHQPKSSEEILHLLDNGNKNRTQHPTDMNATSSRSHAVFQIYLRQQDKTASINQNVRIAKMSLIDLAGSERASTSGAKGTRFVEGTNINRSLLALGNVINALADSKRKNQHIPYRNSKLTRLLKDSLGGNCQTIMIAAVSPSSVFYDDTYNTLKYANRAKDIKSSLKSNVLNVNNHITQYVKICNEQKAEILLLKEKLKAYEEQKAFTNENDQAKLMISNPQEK
Experimental: Materials: Human KIF18A (amino acid sequence 1-417) was purchased from Viva Biotech (Shanghai) Ltd.; the ADP-Glo™ protein kinase kit was acquired from Promega, USA; tubulin was sourced from Cytoskeleton, USA; and the 384-well assay plate and Envision multifunctional microplate reader were obtained from PerkinElmer, USA.
Enzymatic Activity Test: The compound powder was dissolved in DMSO to prepare a stock solution of 10 mM. Then gradient dilution was performed for the compounds in the microplate to achieve a final concentration of 0-10 µM. Then, 2.5 µL each of tubulin, compound, ATP, and KIF18A protein were added to the microplate in sequence for reaction at ambient temperature for 120 min. The final concentrations in the enzyme reaction were 60 µg/mL for microtubules, 25 µM for ATP, and 2.5 nM for KIF18A protein. After the enzyme reaction, 10 µL of ADP-GLO reaction reagent was added to each well and incubated at room temperature for 30 min. After that, 20 µL of detection reagent was added to each well and incubated at room temperature for 30 min in the dark. Finally, chemiluminescence detection was performed using the PerkinElmer Envision.

[2] = system: HT29 cells; assay: CyQuant cell proliferation activity test; assay type: cell-based; conditions: HT29 at 2000 cells per well, 3 days, 0.2% DMSO, XLFIT
Experimental: Materials and Cells: HT29 cells were purchased from Nanjing Cobioer Biosciences Co., Ltd.; RPMI-1640 medium, fetal bovine serum, Trypsin-EDTA (0.25%), 96-well plates, and CyQuant reagents were purchased from ThermoFisher (USA); DMSO was purchased from SIGMA (USA).
Cell Culture: HT29 cells were cultured with RPMI-1640 containing 10% fetal bovine serum under the condition of 37°C and 5% CO2. Only cells in the logarithmic growth phase could be used for the test.
Cell Proliferation Activity Test: CyQuant reagent was used to detect the proliferation inhibitory activity of compounds on HT29 cells. The cell density was adjusted, and 100 µL per well was inoculated into a 96-well plate (HT29 at 2000 cells per well), then incubated overnight at 37°C and 5% CO2. Add compounds of various target concentrations (initial concentration of 3000 nM, 3-fold dilution, 9 concentration gradients), and make the DMSO content 0.2%. The cell plate was incubated at 37°C in 5% CO2 for 3 days. CyQuant reagent was added and incubated for 1 h. The plates were read by Envision, and IC50 was calculated using XLFIT.

[3] = system: OVCAR3 cells; assay: Cell proliferation activity test (CyQUANT Direct); assay type: cell-based; conditions: 3 days, 0.2% DMSO, CyQUANT fluorescence
Experimental: Materials and Cells: OVCAR3 cells were purchased from Nanjing Cobioer Biosciences Co., Ltd. RPMI-1640 medium, fetal bovine serum, and the CyQUANT Direct Cell Proliferation Assay kit were purchased from Thermo Fisher Scientific, USA; 96-well cell culture plates were sourced from Corning, USA.
Cell Culture: OVCAR3 cells were cultured with RPMI-1640 medium containing 10% fetal bovine serum and incubated in a 5% CO2 incubator at 37°C. Only cells in the logarithmic growth phase could be used for the test.
OVCAR3 cells were inoculated into a 96-well cell culture plate at 90 µL per well and incubated overnight in a 5% CO2 incubator at 37°C. The compound powder was dissolved in DMSO to prepare a stock solution of 10 mM. Then gradient dilution was performed for the compounds in the microplate to achieve a final concentration of 0-10 µM. 10 µL of cell culture medium containing compounds was added to each well to make the final DMSO content 0.2%. The cell plates were incubated in a 5% CO2 incubator at 37°C for 3 days. 100 µL of CyQUANT detection reagent was added to each well, reacted at 37°C for 60 min, and fluorescence detection was performed using the PerkinElmer Envision.

`CCS(=O)(=O)Nc1cc2c(c3c1C(=O)CC3)C(=O)Nc1cc(C)nc(n1)N1CCC(F)(F)C(C=CCC3CCN2CC3)C1` (stereo not drawn) [Example 18, N-(1^4,1^4-difluoro-2^6-methyl-5^1,4-dioxo-5^2,5^3-dihydro-5^1H-3-aza-2(2,4)-pyrimidin-1(1,3),6(1,4)-dipiperidin-5(4,5)-indenoheterocyclonon-8-en-5^7-yl)-ethanesulfonamide] showed an IC50 [1] of 67 nM, an IC50 ([2]; read-out: HT-29 IC50) of 41 nM and an IC50 [3] of 38 nM.

`Cc1cc2nc(n1)N1CCC(F)(F)C(/C=C/CC3CCN(CC3)c3cc(NS(=O)(=O)CCO)c(C(=O)O)cc3-n3cc-2nn3)C1` (stereo not drawn) [Example 91, 1^4,1^4-difluoro-4^4-((2-hydroxyethyl)sulfonamido)-2^6-methyl-3^1H-2(2,4)-pyrimidin-1(1,3),5(1,4)-dipiperidin-3(4,1)-triaz ole-4(1,2)-benzocyclooct-7-en-4^5 carboxylic acid] was tested, and the IC50 [1] was 37 nM, the IC50 ([2]; Homo sapiens, HT-29, 72 h) was over 3000 nM and the IC50 ([3]; Homo sapiens, OVCAR-3, 72 h) was over 3000 nM.

In the case of `CC(=O)c1cc2c(cc1NS(=O)(=O)CCO)N1CCC(C/C=C/C3CN(CCC3(F)F)c3nc(C)cc(n3)-c3cn-2nn3)CC1` (racemic) [Example 88, N-((3^4Z,7E)-4^5-acetyl-1^4,1^4-difluoro-2^6-methyl-3^1H-2(2,4)-pyrimidin-1(1,3),5(1,4)-dipiperidin-3(4,1)-triazole-4(1,2)-benzocyclooct-7-en-4^4-yl)-2-hydroxyethane-1-sulfonamide], the IC50 [1] is reported as over 3000 nM, the IC50 ([2]; Homo sapiens, HT-29, 72 h) is reported as over 3000 nM and the IC50 ([3]; Homo sapiens, OVCAR-3, 72 h) is reported as over 3000 nM.

`Cc1cc2nc(n1)N1CCC(F)(F)C(CCCc3ccc(cc3)-c3cc(NS(=O)(=O)CCO)ccc3C(=O)N2)C1` (stereo not drawn) [Example 44, N-((1^3S,Z)-1^4,1^4-difluoro-2^6-methyl-3^1H-2(2,4)-pyrimidin-1(1,3),5(1,4)-dipiperidin-3(4,1)-triazole-4(1,2)-benzylcyclooctyl-4^4-yl)-2-hydroxyethane-1-sulfonamide] gave an IC50 [1] of 83 nM, an IC50 ([2]; Homo sapiens, HT-29, 72 h) of 39 nM and an IC50 ([3]; Homo sapiens, OVCAR-3, 72 h) of 27 nM.

Compound “N-(1^4,1^4,5^1,5^1-tetrafluoro-2^6-methyl-4-dioxo-5^2,5^3-dihydro-5^1H-3-aza-2(2,4)-pyrimidin-1(1,3),6(1,4)-dipiperidin-5(4,5)-benzofurancyclononane-8-en-5^7-yl)-ethanesulfonamide [Example 20]” has an IC50 [1] of 410 nM, an IC50 ([2]; read-out: HT-29 IC50) of 69 nM and an IC50 [3] of 57 nM.

`Cc1cc2nc(n1)N1CCC(F)(F)C(C=CCC3CCN(CC3)c3cc(NS(=O)(=O)CCO)c4c(c3C(=O)N2)CCC4=O)C1` (single isomer, unassigned) [Example 2B, N-(1^4,1^4-difluoro-2^6-methyl-5^1,4-dioxo-5^2,5^3-dihydro-5^1H-3-aza-2(2,4)-pyrimidin-1(1,3),6(1,4)-dipiperidin-5(4,5)-indenoheterocyclonon-8-en-5^7-yl)-2-hydroxyethane-1-sulfonamide] showed an IC50 [1] of 3550 nM, an IC50 ([2]; read-out: HT-29 IC50) of 639 nM and an IC50 [3] of 639 nM.

In the case of `Cc1cc2nc(n1)N1CCC(F)(F)C(/C=C\CC3CCN(CC3)c3cc(NS(=O)(=O)CCO)c4c(c3C(=O)N2)OCC4=O)C1` (stereo not drawn) [Example 14B, N-(1^4,1^4-difluoro-2^6-methyl-5^3,4-dioxo-5^2,5-dihydro-3-aza-2(2,4)-pyrimidin-1(1,3),6(1,4)-dipiperidin-5(7,6)-benzofurancyclononane-8-en-5^4-yl)-2-hydroxyethane-1-sulfonamide], the IC50 [1] is reported as 307 nM, the IC50 ([2]; Homo sapiens, HT-29, 72 h) is reported as over 3000 nM and the IC50 ([3]; Homo sapiens, OVCAR-3, 72 h) is reported as over 3000 nM.

`COc1cc2nc(n1)N1CCC(F)(F)C(/C=C\CC3CCN(CC3)c3cc(NS(=O)(=O)CCO)c4c(c3C(=O)N2)CCC4=O)C1` (stereo not drawn) [Example 5, N-(1^4,1^4-difluoro-2^6-methoxy-5^1,4-dioxo-5^2,5^3-dihydro-5^1H-3-aza-2(2,4)-pyrimidin-1(1,3),6(1,4)-dipiperidin-5(4,5)-indenoheterocyclononane-8-en-5^7-yl)-2-hydroxyethane-1-sulfonamide] was tested, and the IC50 [1] was 162 nM, the IC50 ([2]; Homo sapiens, HT-29, 72 h) was 42 nM and the IC50 ([3]; Homo sapiens, OVCAR-3, 72 h) was 42 nM.

In the case of `Cc1cc2nc(n1)N1CCC(F)(F)C(/C=C/CC3CCN(CC3)c3cc(NS(=O)(=O)CCO)c4c(c3C(=O)N2)CCNC4=O)C1` (stereo not drawn) [Example 17, N-(6^4,6^4-difluoro-5^6-methyl-2^1,3-dioxo-2^1,2^2,2^3,2^4-tetrahydro-4-aza-2(6,5)-isoquinoline-5(4,2)-pyrimidin-1(1,4),6(1,3)-dipiperidinylcyclononane-7-en-2^8-yl)-2-hydroxyethane-1-sulfonamide], the IC50 [1] is reported as 52 nM, the IC50 ([2]; Homo sapiens, HT-29, 72 h) is reported as 105 nM and the IC50 ([3]; Homo sapiens, OVCAR-3, 72 h) is reported as 96 nM.

Work on `Cc1cc2nc(n1)N1CCC(F)(F)C(/C=C/CC3CCN(CC3)c3cc(NS(=O)(=O)CCO)c4c(c3C(=O)N2)CCC4(F)F)C1` (stereo not drawn) [Example 15, 2-Hydroxy-N-(1^4,1^4,5^1,5^1-tetrafluoro-2^1-methyl4-dioxo-5^2,5^1-dihydro-5^1H-3-aza-2(2,4)-pyrimidin-1(1,3),6(1,4)-dipiperidin-5(4,5)-benzofurancyclononane-8-en-5^7-yl)-ethane-1-sulfonamide] yielded an IC50 [1] of 358 nM, an IC50 ([2]; Homo sapiens, HT-29, 72 h) of 46 nM and an IC50 ([3]; Homo sapiens, OVCAR-3, 72 h) of 24 nM.

`COc1cc2nc(n1)N1CCC(F)(F)C(CCCc3ccc(cc3)-c3cc(NS(=O)(=O)CCO)ncc3C(=O)N2)C1` (single isomer, unassigned) [Example 56A, N-(1^4,1^4-difluoro-2^6-methoxy-4-oxo-3-aza-2(2,4)-pyrimidin-5(3,4)-pyridin-1(1,3)-piperidin-6(1,4)-benzoazacyclononane-5^6-yl)-2-hydroxyethane-1-sulfonamide] was tested, and the IC50 [1] was 41 nM, the IC50 ([2]; Homo sapiens, HT-29, 72 h) was 378 nM and the IC50 ([3]; Homo sapiens, OVCAR-3, 72 h) was 188 nM.

“N-(1^4,1^4-difluoro-2^6-methyl-5^1,4-dioxo-5^1,5^2,5^3,5^4-tetrahydro-3-aza-2(2,4)-pyrimidin-1(1,3),6(1,4)-dipiperidin-5(5,6)-in denoheterocyclonon-8-en-5^8-yl)-2-hydroxyethane-1-sulfonamide [Example 8]” was tested, and the IC50 [1] was 48 nM, the IC50 ([2]; read-out: HT-29 IC50) was 43 nM and the IC50 [3] was 37 nM.

With `Cc1cc2nc(n1)N1CCC(F)(F)C(/C=C\CC3CCN(CC3)c3cc(NS(=O)(=O)CCO)c4ccccc4c3C(=O)N2)C1` (single isomer, unassigned) [Example 1B, (cis)-N-(1^4,1^4-difluoro-2^6-methyl-4-oxo-3-aza-2(2,4)-pyrimidin-1(1,3),6(1,4)-dipiperidin-5(1,2)-naphthacyclonon-8-en-5^4-yl)-2-hydroxyethane-1-sulfonamide] the IC50 [1] was 220 nM, the IC50 ([2]; read-out: HT-29 IC50) was 22 nM and the IC50 [3] was 22 nM.

`Cc1cc2nc(n1)N1CCC(F)(F)[C@@H](CCCC3CCN(CC3)c3cc(NS(=O)(=O)CCO)c4c(c3C(=O)N2)CCC4=O)C1` [Example 10, N-((1^3S)-1^4,1^4-difluoro-2^6-methyl-5^1,4-dioxo-5^2,5^3-dihydro-5^1H-3-aza-2(2,4)-pyrimidin-1(1,3),6(1,4)-dipiperidin-5(4,5) -indenobicyclononane-5^7-yl)-2-hydroxyethane-1-sulfonamide] gave an IC50 [1] of 43 nM, an IC50 ([2]; Homo sapiens, HT-29, 72 h) of 39 nM and an IC50 ([3]; Homo sapiens, OVCAR-3, 72 h) of 36 nM.
